Starred links: 1 amine or outer side, 2 acyl side, 3 side chain; linkers in the order of their positions; H or OH if unused. Non-standard residues stand in square brackets, D forms with d. Residues, ends and D or L forms follow the SMILES beside them. Groups on a side chain read outwards from the residue. *: point of attachment. C18 diacid = O=C(O)CCCCCCCCCCCCCCCCC(=O)*; γGlu = O=C(O)[C@H](CCC(=O)[*:2])N[*:1]; Palmitoyl = CCCCCCCCCCCCCCCC(=O)*; AEEA = NCCOCCOCC(=O)O; Aib = CC(C)(N)C(=O)O
Experiments:
Type in all cases: cell-based
CRF1R receptor [1] = molecular target: T1, CRF1R receptor (Homo sapiens, UniProt P34998); assay: cAMP activity at anti-target CRF1R, CHO-K1 cell line clone 2 (Example 19.10); settings: 100% = Sauvagine at 100 nM; CRF1R CHO-K1 clone 2
T1 construct: host or cells: CHO-K1 clone 2
T1 sequence (P34998 24-415): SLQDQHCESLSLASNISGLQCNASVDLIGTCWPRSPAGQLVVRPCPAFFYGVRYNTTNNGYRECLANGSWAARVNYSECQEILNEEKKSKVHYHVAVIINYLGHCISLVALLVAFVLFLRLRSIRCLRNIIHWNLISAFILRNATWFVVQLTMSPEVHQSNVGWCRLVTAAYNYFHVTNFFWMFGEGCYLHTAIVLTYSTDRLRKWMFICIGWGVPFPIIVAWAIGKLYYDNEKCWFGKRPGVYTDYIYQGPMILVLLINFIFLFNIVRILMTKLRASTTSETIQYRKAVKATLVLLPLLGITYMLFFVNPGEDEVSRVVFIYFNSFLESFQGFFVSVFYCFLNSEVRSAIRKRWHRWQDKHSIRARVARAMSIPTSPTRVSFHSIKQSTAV
How it was run: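 A CRF1R-overexpressing CHO-K1 line (clone 2) was grown in F12/10% FBS/G418 and frozen in aliquots before use. The cAMP assay followed the preceding procedure, with 100% activation defined by Sauvagine at 100 nM.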

rat CRF2R α receptor = assay: cAMP agonism at rat CRF2R α receptor in A7R5 rat aortic smooth muscle cells (Example 8); settings: cAMP HTRF, A7R5 rat aortic smooth muscle cell line, 0% HSA
How it was run: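 Thawed cryopreserved A7R5 cells in HBSS/20 mM HEPES (0 or 0.1% HSA) with 2 mM IBMX, 2000 cells/well, were exposed to compound for 30 min at room temperature. cAMP was read by HTRF (665/620 nm ratio) after 1 h with lysis reagents. Activity was normalised to 1000 nM urocortin 2 as 100%, and EC50 was taken as the concentration giving 50% of maximal activation.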

CRF1R receptor [2] = molecular target: T1, CRF1R receptor; assay: cAMP activity at anti-target CRF1R, CRF1R-overexpression CHO cell line (Example 9); settings: CRF1R-overexpression CHO cell line; read-out: Emax (%)
How it was run: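 cAMP accumulation was read by HTRF after 30 min at room temperature of compound treatment. Cells were cryopreserved CHO cells overexpressing CRF1R, plated at 2000/well in IBMX (2 mM)-containing HBSS/HEPES buffer with 0 or 0.1% HSA. Activity was normalized to 1000 nM UCN2 as 100%.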

Emax (CRF1R receptor [1]) [%]	EC50 (rat CRF2R α receptor) [nM]	Emax (CRF1R receptor [2]) [%]	Structure (SMILES)
84	0.04	–	CCCCCCCCCCCCCCCC(=O)N[C@@H](CCC(=O)NCCCC[C@H](NC(=O)[C@H](CC(C)C)NC(=O)CNC(=O)[C@@H](NC(=O)[C@@H]1CCCN1C(=O)[C@H](NC(=O)[C@H](CC(=O)O)NC(=O)[C@H](CC(C)C)NC(=O)[C@H](CO)NC(=O)[C@H](CC(C)C)NC(=O)[C@@H](NC(=O)[C@@H](N)[C@@H](C)CC)C(C)C)C(C)C)[C@@H](C)CC)C(=O)N[C@@H](CCC(N)=O)C(=O)N[C@@H](CCCCN)C(=O)N[C@@H](CC(C)C)C(=O)N[C@@H](CC(C)C)C(=O)N[C@@H](CCCCN)C(=O)N[C@@H](CCC(N)=O)C(=O)N[C@@H](CCC(N)=O)C(=O)N[C@@H](CCCNC(=N)N)C(=O)N[C@@H](CCC(N)=O)C(=O)N[C@@H](CCCNC(=N)N)C(=O)N[C@@H](CCCCN)C(=O)N[C@@H](CCC(=O)O)C(=O)N[C@@H](CCCNC(=N)N)C(=O)N[C@@H](CCC(N)=O)C(=O)N[C@@H](CCC(N)=O)C(=O)N[C@@H](C)C(=O)N[C@@H](CCC(=O)O)C(=O)N[C@@H](CCCCN)C(=O)N[C@@H](CC(N)=O)C(=O)N[C@@H](CCCCN)C(=O)N[C@@H](CCCNC(=N)N)C(=O)N[C@H](C(=O)N[C@@H](CC(C)C)C(=O)N[C@@H](CCC(=O)O)C(=O)N[C@@H](CCCNC(=N)N)C(=O)N[C@H](C(N)=O)C(C)C)[C@@H](C)CC)C(=O)O [SEQ ID NO: 226] (H-IVLSLD[dV]PIGLK([γGlu-Palmitoyl])QKLLKQQRQRKERQQAEKNKRILERV-NH2; N-terminus assumed)
–	12.6	25.8	CC[C@H](C)[C@H](NC(C)=O)C(=O)N[C@H](C(=O)N[C@@H](CC(C)C)C(=O)N[C@@H](CO)C(=O)N[C@@H](CC(C)C)C(=O)N[C@@H](CC(=O)O)C(=O)N[C@@H](C(=O)N1CCC[C@H]1C(=O)N[C@H](C(=O)NCC(=O)N[C@@H](CC(C)C)C(=O)N[C@@H](CCCCNC(=O)COCCOCCNC(=O)COCCOCCNC(=O)CC[C@H](NC(=O)CCCCCCCCCCCCCCCCC(=O)O)C(=O)O)C(=O)N[C@@H](CCC(N)=O)C(=O)N[C@H](C(=O)N[C@@H](CC(C)C)C(=O)N[C@@H](CC(C)C)C(=O)N[C@@H](CCC(=O)O)C(=O)N[C@@H](CCC(N)=O)C(=O)N[C@@H](CCC(=O)O)C(=O)N[C@@H](CCCNC(=N)N)C(=O)N[C@@H](CCC(N)=O)C(=O)N[C@@H](CCCCN)C(=O)NC(C)(C)C(=O)N[C@@H](CCC(N)=O)C(=O)N[C@@H](CCCNC(=N)N)C(=O)N[C@@H](CCC(=O)O)C(=O)N[C@@H](CCC(N)=O)C(=O)N[C@@H](C)C(=O)N[C@@H](CCC(=O)O)C(=O)N[C@@H](CCCCN)C(=O)N[C@@H](CC(N)=O)C(=O)N[C@@H](CCCCN)C(=O)N[C@@H](CCC(N)=O)C(=O)N[C@H](C(=O)N[C@@H](CC(C)C)C(=O)N[C@@H](CCC(=O)O)C(=O)N[C@@H](CCC(N)=O)C(=O)N[C@H](C(N)=O)C(C)C)[C@@H](C)CC)[C@@H](C)CC)[C@@H](C)CC)C(C)C)C(C)C [compound 164] (Ac-IVLSLD[dV]PIGLK([AEEA-AEEA-γGlu-C18 diacid])QILLEQERQK[Aib]QREQAEKNKQILEQV-NH2)
–	2.41	26.9	CC[C@H](C)[C@H](NC(C)=O)C(=O)N[C@H](C(=O)N[C@@H](CC(C)C)C(=O)N[C@@H](CO)C(=O)N[C@@H](CC(C)C)C(=O)N[C@@H](CC(=O)O)C(=O)N[C@@H](C(=O)N1CCC[C@H]1C(=O)N[C@H](C(=O)N[C@@H](CCCCN)C(=O)N[C@@H](CC(C)C)C(=O)N[C@@H](CCCCNC(=O)COCCOCCNC(=O)COCCOCCNC(=O)CC[C@H](NC(=O)CCCCCCCCCCCCCCCCC(=O)O)C(=O)O)C(=O)N[C@@H](CCC(N)=O)C(=O)N[C@H](C(=O)N[C@@H](CC(C)C)C(=O)N[C@@H](CC(C)C)C(=O)N[C@@H](CCC(=O)O)C(=O)N[C@@H](CCC(N)=O)C(=O)N[C@@H](C)C(=O)N[C@@H](CCCNC(=N)N)C(=O)N[C@@H](CCC(N)=O)C(=O)N[C@@H](CCCCN)C(=O)NC(C)(C)C(=O)N[C@@H](CCC(N)=O)C(=O)N[C@@H](CCCNC(=N)N)C(=O)N[C@@H](CCC(=O)O)C(=O)N[C@@H](CCC(N)=O)C(=O)N[C@@H](C)C(=O)N[C@@H](CCC(=O)O)C(=O)N[C@@H](CCCCN)C(=O)N[C@@H](CC(N)=O)C(=O)N[C@@H](CCC(=O)O)C(=O)N[C@@H](CCC(N)=O)C(=O)N[C@H](C(=O)N[C@@H](CC(C)C)C(=O)N[C@@H](CCC(=O)O)C(=O)N[C@@H](CCC(N)=O)C(=O)N[C@H](C(N)=O)C(C)C)[C@@H](C)CC)[C@@H](C)CC)[C@@H](C)CC)C(C)C)C(C)C [compound 165] (Ac-IVLSLD[dV]PIKLK([AEEA-AEEA-γGlu-C18 diacid])QILLEQARQK[Aib]QREQAEKNEQILEQV-NH2)
–	9.99	5.94	CC[C@H](C)[C@H](NC(C)=O)C(=O)N[C@H](C(=O)N[C@@H](CC(C)C)C(=O)N[C@@H](CO)C(=O)N[C@@H](CC(C)C)C(=O)N[C@@H](CC(=O)O)C(=O)N[C@@H](C(=O)N1CCC[C@H]1C(=O)N[C@H](C(=O)N[C@@H](CCCCN)C(=O)N[C@@H](CC(C)C)C(=O)N[C@@H](CCCCNC(=O)COCCOCCNC(=O)COCCOCCNC(=O)CC[C@H](NC(=O)CCCCCCCCCCCCCCCCC(=O)O)C(=O)O)C(=O)N[C@@H](CCC(N)=O)C(=O)N[C@H](C(=O)N[C@@H](CC(C)C)C(=O)N[C@@H](CC(C)C)C(=O)N[C@@H](CCC(=O)O)C(=O)N[C@@H](CCC(N)=O)C(=O)N[C@@H](CCC(=O)O)C(=O)N[C@@H](CCCNC(=N)N)C(=O)N[C@@H](CCC(N)=O)C(=O)N[C@@H](CCCCN)C(=O)NC(C)(C)C(=O)N[C@@H](CCC(N)=O)C(=O)N[C@@H](CCCNC(=N)N)C(=O)N[C@@H](CCC(=O)O)C(=O)N[C@@H](CCC(N)=O)C(=O)N[C@@H](C)C(=O)N[C@@H](CCC(=O)O)C(=O)N[C@@H](CCCCN)C(=O)N[C@@H](CC(N)=O)C(=O)N[C@@H](CCC(=O)O)C(=O)N[C@@H](CCC(N)=O)C(=O)N[C@H](C(=O)N[C@@H](CC(C)C)C(=O)N[C@@H](CCC(=O)O)C(=O)N[C@@H](CCC(N)=O)C(=O)N[C@H](C(N)=O)C(C)C)[C@@H](C)CC)[C@@H](C)CC)[C@@H](C)CC)C(C)C)C(C)C [compound 166] (Ac-IVLSLD[dV]PIKLK([AEEA-AEEA-γGlu-C18 diacid])QILLEQERQK[Aib]QREQAEKNEQILEQV-NH2)
–	76.9	-0.46	CC[C@H](C)[C@H](NC(C)=O)C(=O)N[C@H](C(=O)N[C@@H](CC(C)C)C(=O)N[C@@H](CO)C(=O)N[C@@H](CC(C)C)C(=O)N[C@@H](CC(=O)O)C(=O)N[C@@H](C(=O)N1CCC[C@H]1C(=O)N[C@H](C(=O)NCC(=O)N[C@@H](CC(C)C)C(=O)N[C@@H](CCCCNC(=O)COCCOCCNC(=O)COCCOCCNC(=O)CC[C@H](NC(=O)CCCCCCCCCCCCCCCCC(=O)O)C(=O)O)C(=O)N[C@@H](CCC(N)=O)C(=O)N[C@H](C(=O)N[C@@H](CC(C)C)C(=O)N[C@@H](CC(C)C)C(=O)N[C@@H](CCC(=O)O)C(=O)N[C@@H](CCC(N)=O)C(=O)N[C@@H](CCC(=O)O)C(=O)N[C@@H](CCCNC(=N)N)C(=O)N[C@@H](CCC(N)=O)C(=O)N[C@@H](CCCCN)C(=O)NC(C)(C)C(=O)N[C@@H](CCC(N)=O)C(=O)N[C@@H](CCCNC(=N)N)C(=O)N[C@@H](CCC(=O)O)C(=O)N[C@@H](CCC(N)=O)C(=O)N[C@@H](C)C(=O)N[C@@H](CCC(=O)O)C(=O)N[C@@H](CCCCN)C(=O)N[C@@H](CC(N)=O)C(=O)N[C@@H](CCC(=O)O)C(=O)N[C@@H](CCC(N)=O)C(=O)N[C@H](C(=O)N[C@@H](CC(C)C)C(=O)N[C@@H](CCC(=O)O)C(=O)N[C@@H](CCC(N)=O)C(=O)N[C@H](C(N)=O)C(C)C)[C@@H](C)CC)[C@@H](C)CC)[C@@H](C)CC)C(C)C)C(C)C [compound 167] (Ac-IVLSLD[dV]PIGLK([AEEA-AEEA-γGlu-C18 diacid])QILLEQERQK[Aib]QREQAEKNEQILEQV-NH2)
